Test results: the NIST ThermoML archive (doi:10.1021/acs.jced.5b00549)
± gives the expanded uncertainty stated by the source.

Experiment: mn = molality of the nth substance listed, in mol/kg
Conditions: 100 kPa, Liquid; for viscosity: Capillary tube (Ostwald / Ubbelohde) method; for speed of sound: Frequency=3 MHz, Sing-around technique in a fixed-path interferometer; for mass density: Vibrating tube method

CN(C)C(=N)NC(=N)N.Cl [N,N-dimethylimidodicarbonimidic diamide hydrochloride] + O
Conditions | mass density, m1 = 0.01 [kg/m3] | mass density, m1 = 0.07 [kg/m3] | mass density, m1 = 0.13 [kg/m3] | speed of sound, m1 = 0.01 [m/s] | speed of sound, m1 = 0.07 [m/s] | speed of sound, m1 = 0.13 [m/s] | viscosity, m1 = 0.01 [mPa·s] | viscosity, m1 = 0.07 [mPa·s] | viscosity, m1 = 0.13 [mPa·s]
293.15 K | 998.57 ± 0.77 | 1000.83 ± 0.47 | 1003.13 ± 0.79 | 1483.3 ± 1.1 | 1490.2 ± 1.3 | 1496.3 ± 1 | 1.01 ± 0.021 | 1.015 ± 0.032 | 1.019 ± 0.021
298.15 K | 997.402 ± 0.79 | 999.633 ± 0.77 | 1001.9 ± 0.75 | 1497.3 ± 1.1 | 1503.9 ± 1 | 1509.7 ± 0.97 | 0.8925 ± 0.021 | 0.899 ± 0.021 | 0.9052 ± 0.021
303.15 K | 995.993 ± 0.78 | 998.2 ± 0.76 | 1000.45 ± 0.74 | 1509.7 ± 1.1 | 1515.8 ± 1 | 1521.3 ± 0.96 | 0.8013 ± 0.021 | 0.8074 ± 0.021 | 0.8126 ± 0.021
308.15 K | 994.369 ± 0.76 | 996.524 ± 0.75 | 998.785 ± 0.75 | 1520.3 ± 1 | 1526 ± 0.99 | 1531.3 ± 0.95 | 0.7245 ± 0.021 | 0.7285 ± 0.021 | 0.7333 ± 0.021
313.15 K | 992.542 ± 0.74 | 994.71 ± 0.42 | 996.926 ± 0.76 | 1529.4 ± 0.98 | 1534.8 ± 2.6 | 1539.8 ± 0.97 | 0.6566 ± 0.02 | 0.6606 ± 0.027 | 0.6662 ± 0.02

N[C@@H](Cc1c[nH]cn1)C(=O)O [L-histidine] + O
Conditions | mass density [kg/m3] | speed of sound [m/s] | viscosity [mPa·s]
293.15 K, m1 = 0.02 | 999.369 ± 0.28 | 1484.4 ± 0.88 | 1.013 ± 0.021
293.15 K, m1 = 0.04 | 1000.53 ± 0.28 | 1486.2 ± 0.88 | 1.019 ± 0.021
293.15 K, m1 = 0.06 | 1001.7 ± 0.28 | 1488 ± 0.88 | 1.025 ± 0.021
293.15 K, m1 = 0.08 | 1002.86 ± 0.28 | 1489.7 ± 0.88 | 1.03 ± 0.021
293.15 K, m1 = 0.1 | 1004.03 ± 0.29 | 1491.5 ± 0.88 | 1.035 ± 0.021
293.15 K, m1 = 0.12 | 1005.19 ± 0.29 | 1493.2 ± 0.88 | 1.04 ± 0.021
293.15 K, m1 = 0.14 | 1006.36 ± 0.29 | 1494.9 ± 0.88 | 1.045 ± 0.021
293.15 K, m1 = 0.16 | 1007.53 ± 0.29 | 1496.6 ± 0.88 | 1.049 ± 0.021
293.15 K, m1 = 0.18 | 1008.71 ± 0.29 | 1498.2 ± 0.88 | 1.054 ± 0.021
293.15 K, m1 = 0.2 | 1009.89 ± 0.29 | 1499.9 ± 0.88 | 1.058 ± 0.021
298.15 K, m1 = 0.02 | 998.178 ± 0.29 | 1498.5 ± 0.93 | 0.8996 ± 0.021
298.15 K, m1 = 0.04 | 999.317 ± 0.28 | 1500.2 ± 0.88 | 0.9048 ± 0.021
298.15 K, m1 = 0.06 | 1000.46 ± 0.28 | 1501.9 ± 0.88 | 0.9091 ± 0.021
298.15 K, m1 = 0.08 | 1001.59 ± 0.28 | 1503.7 ± 0.88 | 0.9138 ± 0.021
298.15 K, m1 = 0.1 | 1002.73 ± 0.28 | 1505.3 ± 0.88 | 0.9175 ± 0.021
298.15 K, m1 = 0.12 | 1003.87 ± 0.28 | 1507 ± 0.88 | 0.9222 ± 0.021
298.15 K, m1 = 0.14 | 1005.02 ± 0.28 | 1508.7 ± 0.9 | 0.9259 ± 0.021
298.15 K, m1 = 0.16 | 1006.16 ± 0.28 | 1510.3 ± 0.88 | 0.9293 ± 0.021
298.15 K, m1 = 0.18 | 1007.32 ± 0.28 | 1512 ± 0.88 | 0.9336 ± 0.021
298.15 K, m1 = 0.2 | 1008.47 ± 0.27 | 1513.6 ± 0.84 | 0.9374 ± 0.021
303.15 K, m1 = 0.02 | 996.746 ± 0.29 | 1510.7 ± 0.93 | 0.8051 ± 0.021
303.15 K, m1 = 0.04 | 997.854 ± 0.28 | 1512.4 ± 0.88 | 0.8093 ± 0.021
303.15 K, m1 = 0.06 | 998.962 ± 0.28 | 1514.1 ± 0.88 | 0.813 ± 0.021
303.15 K, m1 = 0.08 | 1000.07 ± 0.28 | 1515.7 ± 0.88 | 0.8165 ± 0.021
303.15 K, m1 = 0.1 | 1001.18 ± 0.28 | 1517.3 ± 0.88 | 0.8198 ± 0.021
303.15 K, m1 = 0.12 | 1002.29 ± 0.28 | 1519 ± 0.88 | 0.8233 ± 0.021
303.15 K, m1 = 0.14 | 1003.39 ± 0.28 | 1520.5 ± 0.88 | 0.8265 ± 0.021
303.15 K, m1 = 0.16 | 1004.5 ± 0.28 | 1522.2 ± 0.88 | 0.8301 ± 0.021
303.15 K, m1 = 0.18 | 1005.61 ± 0.28 | 1523.7 ± 0.88 | 0.8339 ± 0.021
303.15 K, m1 = 0.2 | 1006.72 ± 0.27 | 1525.3 ± 0.85 | 0.8372 ± 0.021
308.15 K, m1 = 0.02 | 995.102 ± 0.28 | 1521.3 ± 0.92 | 0.7253 ± 0.021
308.15 K, m1 = 0.04 | 996.183 ± 0.27 | 1523 ± 0.88 | 0.7289 ± 0.021
308.15 K, m1 = 0.06 | 997.262 ± 0.27 | 1524.6 ± 0.9 | 0.732 ± 0.021
308.15 K, m1 = 0.08 | 998.34 ± 0.27 | 1526.2 ± 0.88 | 0.7348 ± 0.021
308.15 K, m1 = 0.1 | 999.416 ± 0.27 | 1527.8 ± 0.88 | 0.7378 ± 0.021
308.15 K, m1 = 0.12 | 1000.49 ± 0.27 | 1529.4 ± 0.88 | 0.7407 ± 0.021
308.15 K, m1 = 0.14 | 1001.57 ± 0.27 | 1531 ± 0.88 | 0.7435 ± 0.021
308.15 K, m1 = 0.16 | 1002.64 ± 0.27 | 1532.5 ± 0.88 | 0.7466 ± 0.021
308.15 K, m1 = 0.18 | 1003.72 ± 0.27 | 1534.1 ± 0.88 | 0.7492 ± 0.021
308.15 K, m1 = 0.2 | 1004.78 ± 0.26 | 1535.6 ± 0.8 | 0.7524 ± 0.021
313.15 K, m1 = 0.02 | 993.257 ± 0.27 | 1530.4 ± 0.9 | 0.6578 ± 0.02
313.15 K, m1 = 0.04 | 994.314 ± 0.27 | 1532 ± 0.88 | 0.6608 ± 0.02
313.15 K, m1 = 0.06 | 995.368 ± 0.27 | 1533.5 ± 0.88 | 0.6633 ± 0.02
313.15 K, m1 = 0.08 | 996.42 ± 0.27 | 1535.1 ± 0.88 | 0.666 ± 0.02
313.15 K, m1 = 0.1 | 997.47 ± 0.27 | 1536.7 ± 0.88 | 0.6682 ± 0.02
313.15 K, m1 = 0.12 | 998.515 ± 0.27 | 1538.2 ± 0.88 | 0.6709 ± 0.02
313.15 K, m1 = 0.14 | 999.558 ± 0.27 | 1539.7 ± 0.88 | 0.6734 ± 0.02
313.15 K, m1 = 0.16 | 1000.6 ± 0.27 | 1541.2 ± 0.88 | 0.6756 ± 0.02
313.15 K, m1 = 0.18 | 1001.63 ± 0.26 | 1542.7 ± 0.88 | 0.6783 ± 0.02
313.15 K, m1 = 0.2 | 1002.67 ± 0.26 | 1544.2 ± 0.88 | 0.681 ± 0.02
